According to PubChem BioAssay AID806 (SRMLSC, 2007):
Active and inactive are the calls of the source. How the calls were made is not given here.

Test system: virus-infected cells, CPE inhibition, dose response
Test: PubChem AID 806
Conditions: for EC90: measured here: EC90 CPE inhibition; for CC50: measured here: cytotoxicity, cell viability IC50

CCCCN(C(=O)Cn1nnc2ccccc21)C(C(=O)NCc1ccco1)c1ccncc1 (stereo not drawn) was tested, and the EC50 was > 60 µM (inactive), the EC90 was > 60 µM and the CC50 was > 60 µM.

In the case of COc1ccc(S(=O)(=O)Nc2ccc(F)cc2)cc1N(C)S(=O)(=O)c1ccc(Cl)cc1, the EC50 is reported as > 60 µM (inactive), the EC90 is reported as > 60 µM and the CC50 is reported as > 60 µM.

With COC(=O)Cc1c(C)nc2nc(-c3ccccc3)[nH]n2c1=O the EC50 was > 60 µM (inactive), the EC90 was > 60 µM and the CC50 was > 60 µM.

Cc1cccc(NC(=O)C2CC(=O)OC23CCCCC3)c1 (stereo not drawn) was tested, and the EC50 was > 60 µM (inactive), the EC90 was > 60 µM and the CC50 was > 60 µM.

With COc1ccccc1Cn1c(=O)[nH]c2cccnc21 the EC50 was > 60 µM (inactive), the EC90 was > 60 µM and the CC50 was > 60 µM.

CC(C)(C)c1ccc(OCCn2ccccc2=O)cc1 was tested, and the EC50 was > 60 µM (inactive), the EC90 was > 60 µM and the CC50 was 40.9 µM.

With Cn1nc(C(=O)Nc2c(-c3ccccc3)nc3sccn23)c2ccccc2c1=O the EC50 was > 60 µM (inactive), the EC90 was > 60 µM and the CC50 was > 60 µM.

In the case of O=C(CN1CCN(c2ncccn2)CC1)NCc1ccccc1, the EC50 is reported as > 60 µM (inactive), the EC90 is reported as > 60 µM and the CC50 is reported as > 60 µM.

COc1cc(OC)c(C2=NOC(C(=O)Nc3cc(C)nn3-c3ccccc3)C2)cc1Cl (stereo not drawn) was tested, and the EC50 was > 60 µM (inactive), the EC90 was > 60 µM and the CC50 was > 60 µM.

In the case of COc1ccc(NS(=O)(=O)c2ccc(OC)c(N(C)S(=O)(=O)c3ccc(Cl)cc3)c2)cc1, the EC90 is reported as > 60 µM and the CC50 is reported as 22.9 µM.

For Cc1cc(NC(=O)C2CC(c3ccc(F)cc3)=NO2)n(-c2ccccc2)n1 (stereo not drawn), the EC50 was > 60 µM (inactive), the EC90 was > 60 µM and the CC50 was > 60 µM.

In the case of O=C(c1cnn2c(C(F)F)cc(-c3ccccc3)nc12)N1CCOCC1, the EC50 is reported as > 60 µM (inactive), the EC90 is reported as > 60 µM and the CC50 is reported as > 60 µM.

With Cc1ccc2c(C)c(C(=O)Nc3cccnc3)oc2c1 the EC50 was > 60 µM (inactive), the EC90 was > 60 µM and the CC50 was > 60 µM.

O=Nc1c(O)n(Cc2ccc(Cl)cc2)c2ccccc12 was tested, and the EC50 was > 60 µM (inactive), the EC90 was > 60 µM and the CC50 was > 60 µM.

With COc1ccc(C(=O)C(CN2CCOCC2)c2ccccc2)cc1F (stereo not drawn) the EC50 was > 60 µM (inactive), the EC90 was > 60 µM and the CC50 was > 60 µM.

In the case of COc1ccccc1NC(=O)C1CCCCN1S(=O)(=O)c1ccc(F)cc1 (stereo not drawn), the EC50 is reported as > 60 µM (inactive), the EC90 is reported as > 60 µM and the CC50 is reported as > 60 µM.

With CCCN(CCC)C(=O)CCS(=O)(=O)c1cccc2nsnc12 the EC50 was > 60 µM (inactive), the EC90 was > 60 µM and the CC50 was > 60 µM.

In the case of CC1Cc2ccccc2N1C(=O)CSc1nnc2sc3ccccc3n12 (stereo not drawn), the EC50 is reported as > 60 µM (inactive), the EC90 is reported as > 60 µM and the CC50 is reported as 10.1 µM.

For Cc1cc(C(=O)NCc2ccccc2)c(=O)[nH]c1C, the EC50 was > 60 µM (inactive), the EC90 was > 60 µM and the CC50 was > 60 µM.

For O=C1/C(=C\c2ccco2)SC(=S)N1Cc1ccccc1, the EC50 was > 60 µM (inactive), the EC90 was > 60 µM and the CC50 was 6.46 µM.

COc1cccc(Nc2ncnc3c2cnn3-c2cccc(C)c2)c1 was tested, and the EC50 was > 60 µM (inactive), the EC90 was > 60 µM and the CC50 was > 60 µM.

With COC(=O)CSc1nnc(-c2cccnc2)o1 the EC50 was > 60 µM (inactive), the EC90 was > 60 µM and the CC50 was > 60 µM.

For CC(C)NC(=O)CN1CCN(c2ncccn2)CC1, the EC50 was > 60 µM (inactive), the EC90 was > 60 µM and the CC50 was > 60 µM.

With O=C1CC(C(=O)Nc2ccc(C(=O)N3CCOCC3)cc2)C2(CCCCC2)O1 (stereo not drawn) the EC50 was > 60 µM (inactive), the EC90 was > 60 µM and the CC50 was > 60 µM.

With COc1ccc(-c2nnc3ccc(SCC(=O)NCc4ccco4)nn23)cc1OC the EC50 was > 60 µM (inactive), the EC90 was > 60 µM and the CC50 was > 60 µM.

For O=C(c1noc2c1CCc1ccccc1-2)N1CCOCC1, the EC50 was > 60 µM (inactive), the EC90 was > 60 µM and the CC50 was > 60 µM.

O=C(CSc1ccc2nnc(-c3ccccn3)n2n1)NCc1ccco1 was tested, and the EC50 was > 60 µM (inactive), the EC90 was > 60 µM and the CC50 was > 60 µM.

In the case of CCOc1ccccc1NC(=O)C1CCCCN1S(=O)(=O)c1ccc(F)cc1 (stereo not drawn), the EC50 is reported as > 60 µM (inactive), the EC90 is reported as > 60 µM and the CC50 is reported as > 60 µM.

For CC(C)(C)OC(=O)N[C@@H](Cc1ccccc1)c1nnc(SCC(=O)O)o1, the EC50 was > 60 µM (inactive), the EC90 was > 60 µM and the CC50 was > 60 µM.

In the case of O=C1c2ccccc2-c2onc3ccc(Oc4ccccc4)c1c23, the EC50 is reported as > 60 µM (inactive), the EC90 is reported as > 60 µM and the CC50 is reported as 17.7 µM.

COc1cccc(CNC(=O)CCS(=O)(=O)c2cccc3nsnc23)c1 was tested, and the EC50 was > 60 µM (inactive), the EC90 was > 60 µM and the CC50 was > 60 µM.

With COc1ccc(-n2ncc3c(N4CCCc5ccccc54)ncnc32)cc1 the EC50 was > 60 µM (inactive), the EC90 was > 60 µM and the CC50 was > 60 µM.

For COc1ccccc1Cn1c(=O)c2ccccc2n2c(Sc3ncnc4sccc34)nnc12, the EC50 was > 60 µM (inactive), the EC90 was > 60 µM and the CC50 was > 60 µM.

CCOc1ccc(NC(=O)C2CCCCN2S(=O)(=O)c2ccccc2)cc1 (stereo not drawn) was tested, and the EC50 was > 60 µM (inactive), the EC90 was > 60 µM and the CC50 was > 60 µM.

For CCOC(=O)c1cnn(-c2ccccc2)c1-n1cccc1C(=O)C(=O)Nc1ccccc1C(F)(F)F, the EC50 was > 60 µM (inactive), the EC90 was > 60 µM and the CC50 was > 60 µM.

In the case of CCCCN(C(=O)Cn1nnc2ccccc21)C(C(=O)NCCOC)c1ccccc1 (stereo not drawn), the EC50 is reported as > 60 µM (inactive), the EC90 is reported as > 60 µM and the CC50 is reported as > 60 µM.

In the case of CC(C)c1cccc(C(C)C)c1OCCCCN1CCCC1, the EC50 is reported as > 60 µM (inactive), the EC90 is reported as > 60 µM and the CC50 is reported as > 60 µM.

With O=C1CSC(=S)N1Cc1cccnc1 the EC50 was > 60 µM (inactive), the EC90 was > 60 µM and the CC50 was 50.8 µM.

CSc1nnc(-c2ccc(Cl)cc2Cl)o1 was tested, and the EC50 was 48.5 µM (inactive), the EC90 was > 60 µM and the CC50 was > 60 µM.

With COc1ccccc1CNC(=O)c1c(O)c2cc(OC)c(OC)cc2[nH]c1=O the EC50 was > 60 µM (inactive), the EC90 was > 60 µM and the CC50 was > 60 µM.

For Cc1ccc(-n2nc(C(=O)N3CCOCC3)cc2-c2ccc(Cl)cc2)cc1, the EC50 was > 60 µM (inactive), the EC90 was > 60 µM and the CC50 was 7.33 µM.

For COCc1cc(=O)n2c(-c3ccccc3OC)n[nH]c2n1, the EC50 was > 60 µM (inactive), the EC90 was > 60 µM and the CC50 was > 60 µM.

In the case of O=C(C1CCCCN1S(=O)(=O)c1ccccc1)N1CCCCC1 (stereo not drawn), the EC50 is reported as > 60 µM (inactive), the EC90 is reported as > 60 µM and the CC50 is reported as > 60 µM.

For CC(C)CNC(=O)c1cccc(NC(=O)c2ccc(NC(=O)c3ccco3)cc2)c1, the EC50 was > 60 µM (inactive), the EC90 was > 60 µM and the CC50 was > 60 µM.

With O=C(COc1ccccc1)Nc1ccc(-c2nnc(-c3ccco3)o2)cc1 the EC50 was 52 µM (inactive), the EC90 was > 60 µM and the CC50 was > 60 µM.

With O=C(COc1ccccc1)N(Cc1ccco1)c1ccc(O)cc1 the EC50 was > 60 µM (inactive), the EC90 was > 60 µM and the CC50 was > 60 µM.

O=C(C1CCCCN1S(=O)(=O)c1ccccc1)N1CCN(Cc2ccccc2)CC1 (stereo not drawn) was tested, and the EC50 was > 60 µM (inactive), the EC90 was > 60 µM and the CC50 was > 60 µM.

For O=C(CCS(=O)(=O)c1cccc2nsnc12)NCc1ccccc1, the EC50 was > 60 µM (inactive), the EC90 was > 60 µM and the CC50 was > 60 µM.

With COc1cccc(C2=NOC(C(=O)Nc3cc(C)nn3-c3ccccc3)C2)c1OC (stereo not drawn) the EC50 was > 60 µM (inactive), the EC90 was > 60 µM and the CC50 was > 60 µM.

O=C(c1cc2ccccc2o1)n1nnc2ccccc21 was tested, and the EC50 was > 60 µM (inactive), the EC90 was > 60 µM and the CC50 was > 60 µM.

For CS(=O)(=O)c1nc(-c2cccs2)cc(C(F)(F)F)n1, the EC50 was > 60 µM (inactive), the EC90 was > 60 µM and the CC50 was 30.1 µM.

In the case of O=C(c1cnn2c(C(F)(F)F)cc(-c3ccc(Br)cc3)nc12)N1CCOCC1, the EC50 is reported as > 60 µM (inactive), the EC90 is reported as > 60 µM and the CC50 is reported as > 60 µM.

CC(C)(C)NC(=O)c1cccc(NC(=O)c2ccc(NC(=O)c3ccco3)cc2)c1 was tested, and the EC50 was > 60 µM (inactive), the EC90 was > 60 µM and the CC50 was > 60 µM.

With COc1ccc(-c2nc3nc(C)c(Cc4ccccc4)c(=O)n3[nH]2)cc1 the EC50 was > 60 µM (inactive), the EC90 was > 60 µM and the CC50 was > 60 µM.

With CN(C)CCSc1nnc(-c2ccccc2)o1 the EC50 was > 60 µM (inactive), the EC90 was > 60 µM and the CC50 was > 60 µM.

With O=C1NCCCc2c1oc1cc(Br)c(O)c(Br)c21 the EC50 was > 60 µM (inactive), the EC90 was > 60 µM and the CC50 was > 60 µM.

With COc1ccc(Nc2ncnc3c2cnn3-c2ccccc2)cc1OC the EC50 was > 60 µM (inactive), the EC90 was > 60 µM and the CC50 was > 60 µM.

In the case of O=C(Nc1ccc2c(c1)CCC2)c1cc2ccccc2o1, the EC50 is reported as > 60 µM (inactive), the EC90 is reported as > 60 µM and the CC50 is reported as > 60 µM.

CCOc1ccc(-c2nnc3ccc(SCC(=O)NCc4ccco4)nn23)cc1 was tested, and the EC50 was > 60 µM (inactive), the EC90 was > 60 µM and the CC50 was > 60 µM.

With CC(C)(C)OC(=O)NCCc1nnc(SCc2c(Cl)cccc2Cl)o1 the EC50 was > 60 µM (inactive), the EC90 was > 60 µM and the CC50 was > 60 µM.

In the case of COc1ccc(S(=O)(=O)Nc2ccc(C)cc2)cc1N(C)S(=O)(=O)c1ccc(Cl)cc1, the EC50 is reported as > 60 µM (inactive), the EC90 is reported as > 60 µM and the CC50 is reported as > 60 µM.

For Cc1cccc(-n2ncc3c(N4CCCc5ccccc54)ncnc32)c1, the EC50 was > 60 µM (inactive), the EC90 was > 60 µM and the CC50 was > 60 µM.

Cc1ccc(CNC(=O)CCS(=O)(=O)c2cccc3nsnc23)cc1 was tested, and the EC50 was > 60 µM (inactive), the EC90 was > 60 µM and the CC50 was > 60 µM.

In the case of O=C1CC(C(=O)Nc2ccc(Br)cc2)C2(CCCC2)O1 (stereo not drawn), the EC50 is reported as > 60 µM (inactive), the EC90 is reported as > 60 µM and the CC50 is reported as > 60 µM.

For CCOC(=O)/C=C1\SCC(=O)N1CC(=O)Nc1ccc(OC)c(OC)c1, the EC50 was > 60 µM (inactive), the EC90 was > 60 µM and the CC50 was > 60 µM.

For COc1ccc(-n2ncc3c(Nc4cccc(C)c4)ncnc32)cc1, the EC50 was > 60 µM (inactive), the EC90 was > 60 µM and the CC50 was > 60 µM.

For CC(=O)Nc1ccc(Nc2ncnc3c2cnn3-c2ccccc2)cc1, the EC50 was > 60 µM (inactive), the EC90 was > 60 µM and the CC50 was > 60 µM.

With Cc1ccccc1Nc1ncnc2c1cnn2-c1ccccc1 the EC50 was > 60 µM (inactive), the EC90 was > 60 µM and the CC50 was > 60 µM.
